Literature values, collected in publication PMC9010276 (Clinical and Translational Science, 2021).
Read-outs that look alike come from different tables or passages of the source.

Legend:
[1] = studies with registered drugs

Compound	Skin rash after administration (after multiple dosing at higher dose levels)	Analgesic effects on experimental pain tests [1]	Skin rash after administration (nonselective Nav inhibitors)
Nc1[nH]ncc1-c1cc(Cl)ccc1Oc1cc(F)c(S(=O)(=O)Nc2cscn2)cc1Cl [PF‐05089771]	mild skin rash		
COC[C@@H](NC(C)=O)C(=O)NCc1ccccc1 [lacosamide]		limited and variable analgesic effects	
CCN(CC)CC(=O)Nc1c(C)cccc1C [lidocaine]		limited and variable analgesic effects	
Cc1cccc(C)c1OCC(C)N (stereo not drawn) [mexiletine]		limited and variable analgesic effects	mild skin rash
O=C1NC(=O)C(c2ccccc2)(c2ccccc2)N1 [phenytoin]			mild skin rash
